Here are results for 5 cell lines from the supplement of paper PMC10307832.

Experiment in all cases: relative viability (nuclei count vs DMSO), 5 days (fraction); higher = more cells survive
Compound in assay [1]: COC1=CC=C(C=C1)CN2C=CC3=C2C=C(C=C3)C(=O)NO + CC(=O)Nc1cccc(-n2c(=O)n(C3CC3)c(=O)c3c(Nc4ccc(I)cc4F)n(C)c(=O)c(C)c32)c1 [Trametinib] (partner 0.02 µM)
The method in brief: (§1)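 Values are medians from duplicate plates. Each reflects relative viability, defined as the nuclei count of treated wells over that of vehicle wells. Lung cancer cell lines in 1536-well plates were pin-tool dosed one day after seeding with one drug alone or with a fixed anchor-drug dose plus five library-drug doses (not always all listed) in √10 steps, then fixed, stained and imaged at 4× after 5 days.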

Compound in assay [2]: COC1=CC=C(C=C1)CN2C=CC3=C2C=C(C=C3)C(=O)NO + Cc1nc(NC(=O)N2CCC[C@H]2C(N)=O)sc1-c1ccnc(C(C)(C)C(F)(F)F)c1 [Alpelisib] (partner 2 µM)
In outline: as §1

Compound in assay [3]: COC1=CC=C(C=C1)CN2C=CC3=C2C=C(C=C3)C(=O)NO + N=C(N)NC(=N)NCCc1ccccc1 [Phenformin] (partner 250 µM)
The method in brief: as §1

Compound in the assay “Veliparib + Vorinostat”: C[C@]1(c2nc3c(C(N)=O)cccc3[nH]2)CCCN1 [Veliparib] + O=C(CCCCCCC(=O)Nc1ccccc1)NO [Vorinostat] (partner 1 µM)
In outline: as §1

PC-14: the relative viability in assay [1] (first compound 0.08 µM) worked out at 0.741; in assay [1] (first compound 0.253 µM), 0.687; in assay [1] (first compound 0.8 µM), 0.753; in assay [1] (first compound 2.53 µM) it was 0.722; in assay [1] (first compound 8 µM) it was 0.734; in assay [2] (first compound 0.08 µM), 0.883. In addition, the relative viability in assay [2] (first compound 0.253 µM) came out at 0.856; in assay [2] (first compound 0.8 µM), 0.96; in assay [2] (first compound 2.53 µM), 1.02; in assay [2] (first compound 8 µM), 0.985; in assay [3] (first compound 0.253 µM), 0.348; in assay [3] (first compound 0.8 µM), 0.667. Besides, the relative viability in assay [3] (first compound 2.53 µM) is 0.639; in assay [3] (first compound 8 µM), 0.488; in the assay with Veliparib + Vorinostat (first compound 0.06325 µM) it was 0.622; with Veliparib + Vorinostat (first compound 0.2 µM), 0.701; with Veliparib + Vorinostat (first compound 0.6325 µM), 0.639; in the assay with Veliparib + Vorinostat (first compound 2 µM) it was 0.64.
Turning to RERF-LC-KJ, the relative viability in assay [1] (first compound 0.08 µM) came out at 0.865; in assay [1] (first compound 0.253 µM), 1.06; in assay [1] (first compound 0.8 µM), 0.827; in assay [1] (first compound 2.53 µM) it was 0.892; in assay [1] (first compound 8 µM) it was 0.809; in assay [2] (first compound 0.08 µM) it was 0.765. The relative viability worked out at 0.796 in assay [2] (first compound 0.253 µM); 0.83 in assay [2] (first compound 0.8 µM); 0.95 in assay [2] (first compound 2.53 µM); 0.83 in assay [2] (first compound 8 µM); 0.362 in assay [3] (first compound 0.08 µM); 0.412 in assay [3] (first compound 0.253 µM). Besides, the relative viability in assay [3] (first compound 0.8 µM) was determined as 0.484; in assay [3] (first compound 2.53 µM), 0.408; in assay [3] (first compound 8 µM), 0.347; with Veliparib + Vorinostat (first compound 0.02 µM) it was 0.51; in the assay with Veliparib + Vorinostat (first compound 0.06325 µM), 0.61; with Veliparib + Vorinostat (first compound 0.2 µM), 0.679. For the same cell line, the figures for the relative viability in the assay with Veliparib + Vorinostat (first compound 0.6325 µM) and with Veliparib + Vorinostat (first compound 2 µM) were 0.665 and 0.64, respectively.
As for SK-LU-1, the relative viability in assay [1] (first compound 0.08 µM) worked out at 0.347; in assay [1] (first compound 0.253 µM) it was 0.537; in assay [1] (first compound 0.8 µM), 0.51; in assay [1] (first compound 2.53 µM), 0.579; in assay [1] (first compound 8 µM), 0.447; in assay [2] (first compound 0.08 µM) it was 1.01. Further, the relative viability in assay [2] (first compound 0.253 µM) was found to be 1.04; in assay [2] (first compound 0.8 µM), 1.11; in assay [2] (first compound 2.53 µM), 1.11; in assay [2] (first compound 8 µM), 0.81; in assay [3] (first compound 0.08 µM), 0.551; in assay [3] (first compound 0.253 µM) it was 0.566. Moreover, the relative viability in assay [3] (first compound 0.8 µM) worked out at 0.596; in assay [3] (first compound 2.53 µM), 0.604; in assay [3] (first compound 8 µM), 0.469; with Veliparib + Vorinostat (first compound 0.02 µM), 0.946; with Veliparib + Vorinostat (first compound 0.06325 µM), 0.837; with Veliparib + Vorinostat (first compound 0.2 µM) it was 0.906. Also, the relative viability with Veliparib + Vorinostat (first compound 0.6325 µM) was 0.722; with Veliparib + Vorinostat (first compound 2 µM) it was 0.754.
With SK-MES-1, the relative viability in assay [1] (first compound 0.08 µM) came out at 0.549; in assay [1] (first compound 0.253 µM), 0.551; in assay [1] (first compound 0.8 µM), 0.549; in assay [1] (first compound 2.53 µM) it was 0.586; in assay [1] (first compound 8 µM), 0.575; in assay [2] (first compound 0.08 µM), 0.924. In addition, the relative viability in assay [2] (first compound 0.253 µM) was found to be 0.946; in assay [2] (first compound 0.8 µM), 0.861; in assay [2] (first compound 2.53 µM), 0.76; in assay [2] (first compound 8 µM) it was 0.823; in assay [3] (first compound 0.08 µM) it was 0.661; in assay [3] (first compound 0.253 µM), 0.651. Besides, the relative viability in assay [3] (first compound 0.8 µM) came out at 0.632; in assay [3] (first compound 2.53 µM), 0.686; in assay [3] (first compound 8 µM), 0.644; in the assay with Veliparib + Vorinostat (first compound 0.02 µM), 1.19; in the assay with Veliparib + Vorinostat (first compound 0.06325 µM), 1.08; with Veliparib + Vorinostat (first compound 0.2 µM), 1.09. Also, the relative viability with Veliparib + Vorinostat (first compound 0.6325 µM) was determined as 1.04; in the assay with Veliparib + Vorinostat (first compound 2 µM) it was 1.07.
Turning to UMC-11, the relative viability in assay [1] (first compound 0.08 µM) came out at 0.225; in assay [1] (first compound 0.253 µM) it was 0.708; in assay [1] (first compound 0.8 µM), 0.712; in assay [1] (first compound 2.53 µM), 0.735; in assay [1] (first compound 8 µM), 0.666; in assay [2] (first compound 0.08 µM), 0.526. The relative viability in assay [2] (first compound 0.253 µM) came out at 0.986; in assay [2] (first compound 0.8 µM), 0.92; in assay [2] (first compound 2.53 µM), 1.12; in assay [2] (first compound 8 µM) it was 1.05; in assay [3] (first compound 0.253 µM), 0.356; in assay [3] (first compound 0.8 µM) it was 0.331. In addition, the relative viability in assay [3] (first compound 2.53 µM) amounted to 0.286; in assay [3] (first compound 8 µM), 0.309; in the assay with Veliparib + Vorinostat (first compound 0.02 µM), 0.432; in the assay with Veliparib + Vorinostat (first compound 0.06325 µM), 0.354; with Veliparib + Vorinostat (first compound 0.2 µM) it was 0.365; in the assay with Veliparib + Vorinostat (first compound 0.6325 µM) it was 0.381. Also, the relative viability with Veliparib + Vorinostat (first compound 2 µM) turned out to be 0.394.
